Source: patent publication US11168102B1, “Bicyclic heteroaryl compounds and uses thereof” (Revolution Medicines, Inc., priority 2019, dated 2021)

Legend:
[1] = molecular target: SOS1 nucleotide exchange of wild-type KRAS (Homo sapiens (Human), UniProt Q07889); test: Mode of action assay: inhibition of SOS1 nucleotide exchange activity (TR-FRET); format: biochemical; conditions: SOS1 catalytic domain (564-1049), avi-tagged KRAS (1-169), EDA-GTP-DY-647P1; three replicates
[2] = tested on: cellular pERK in PC-9 cells (EGFR Ex19Del); test: Potency assay: pERK (AlphaLISA SureFire Ultra p-ERK1/2) in PC-9 cells; format: cell-based; conditions: Homo sapiens, PC-9, 1 h, PC-9 cells (EGFR Ex19Del), 1 hour incubation, AlphaLISA SureFire Ultra p-ERK1/2; read-out: SOS1 pERK IC50
[3] = molecular target: SOS1 catalytic domain (residues 564-1049) (Homo sapiens (Human), UniProt Q07889); test: Potency assay: binding affinity to SOS1 by Surface Plasmon Resonance (SPR); conditions: avi-tagged SOS1 catalytic domain immobilized on sensor chip; 1:1 equilibrium binding fit
SOS1 catalytic domain (residues 564-1049), sequence (Q07889 564-1049): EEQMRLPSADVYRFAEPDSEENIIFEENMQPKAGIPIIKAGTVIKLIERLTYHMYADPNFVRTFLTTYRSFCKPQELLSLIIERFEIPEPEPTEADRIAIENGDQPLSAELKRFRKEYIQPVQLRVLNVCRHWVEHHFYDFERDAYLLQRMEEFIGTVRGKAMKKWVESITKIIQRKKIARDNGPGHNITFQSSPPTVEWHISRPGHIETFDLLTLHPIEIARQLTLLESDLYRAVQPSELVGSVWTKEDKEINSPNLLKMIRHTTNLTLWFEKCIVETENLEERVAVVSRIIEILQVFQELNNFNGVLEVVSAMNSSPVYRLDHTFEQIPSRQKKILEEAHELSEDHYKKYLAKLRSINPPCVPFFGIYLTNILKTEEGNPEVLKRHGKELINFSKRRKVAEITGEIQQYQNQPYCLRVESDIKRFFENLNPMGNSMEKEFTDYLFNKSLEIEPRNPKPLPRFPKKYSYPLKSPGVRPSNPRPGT

SOS1 nucleotide exchange of wild-type KRAS, sequence (Q07889 564-1049): as above

| Structure (SMILES) | IC50 [1] [nM] | IC50 [2] [nM] | Kd [3] [nM] |
| --- | --- | --- | --- |
| C[C@@H](Nc1ncnc2c1cc(C1(F)CCS(=O)(=NC3CC3)CC1)c(=O)n2C)c1cccc(C(F)F)c1F (single isomer, unassigned) [Example 57] | 7.65 | 42.6 | 9.19 |
| C[C@@H](Nc1ncnc2c1cc(C1=CCNC1)c(=O)n2C)c1cccc(C(F)F)c1F [Example 1-1] | 41.5 | 140 | 59.1 |
| C[C@@H](Nc1ncnc2c1cc(C1=CCNCC1)c(=O)n2C)c1cccc(C(F)(F)F)c1 [Example 1-2] | 23.8 | 114 | 13.4 |
| C[C@@H](Nc1ncnc2c1cc(C1=CCNCC1)c(=O)n2C)c1cccc(C(F)F)c1F [Example 1-3] | 21.2 | 50.3 | 7.86 |
| C[C@@H](Nc1ncnc2c1cc(C1=CCOCC1)c(=O)n2C)c1cccc(C(F)F)c1F [Example 1-5] | 32 | 222 | 16.3 |
| Cc1nc(N[C@H](C)c2cccc(C(F)F)c2F)c2cc(C3=CCOC3)c(=O)n(C)c2n1 [Example 1-7] | 257 | 693 | 353 |
| C[C@@H](Nc1ncnc2c1cc(C1=CCN(C)CC1)c(=O)n2C)c1cccc(C(F)(F)F)c1 [Example 1-8] | 20.1 | 169 | 20 |
| Cc1nc(N[C@H](C)c2cccc(C(F)F)c2F)c2cc(C3=CCNCC3)c(=O)n(C)c2n1 [Example 1-9] | 48.9 | 666 | 74 |
| Cc1nc(N[C@H](C)c2cccc(C(F)F)c2F)c2cc(C3=CCN(C)CC3)c(=O)n(C)c2n1 [Example 1-10] | 42.9 | 425 | 23.2 |
| CC(=O)N1CC=C(c2cc3c(N[C@H](C)c4cccc(C(F)F)c4C)ncnc3n(C)c2=O)CC1 [Example 1-11] | 29.3 | 77 | 54.6 |
| CC(=O)N1CC=C(c2cc3c(N[C@H](C)c4cccc(C(C)(F)F)c4)ncnc3n(C)c2=O)CC1 [Example 1-12] | 34 | 125 | 36.8 |
| C[C@@H](Nc1ncnc2c1cc(C1=C[C@H]3CNC[C@@H](C1)O3)c(=O)n2C)c1cccc(C(F)F)c1F [Example 1-13] | 19.3 | 195 | 13.8 |
| CC(=O)N1CCC=C(c2cc3c(N[C@H](C)c4cccc(C(F)F)c4F)ncnc3n(C)c2=O)C1 [Example 1-14] | 53 | 218 | 19 |
| C[C@@H](Nc1ncnc2c1cc(C1=C[C@@H]3CNC[C@H](C1)O3)c(=O)n2C)c1cccc(C(F)F)c1F [Example 1-15] | 39.8 | 217 | 6.29 |
| C[C@@H](Nc1ncnc2c1cc(C1=CCS(=O)(=O)CC1)c(=O)n2C)c1cccc(C(F)F)c1F [Example 1-17] | 13 | 50.7 | 21.3 |
| CC(=O)N1CC=C(c2cc3c(N[C@H](C)c4cccc5c4OCC5(F)F)ncnc3n(C)c2=O)CC1 [Example 1-18] | 12.8 | 67 | 22 |
| CC(=O)N1CC=C(c2cc3c(N[C@H](C)c4cccc(C(F)(F)F)c4C)ncnc3n(C)c2=O)CC1 [Example 1-19] | 44.3 | 91 | 144 |
| CC(=O)N1CC=C(c2cc3c(N[C@H](C)c4cccc(C(F)F)c4F)nc(C)nc3n(C)c2=O)CC1 [Example 1-21] | 95.6 | 173 | 137 |
| CC(=O)N1CC=C(c2cc3c(N[C@H](C)c4cccc(C(F)F)c4Cl)ncnc3n(C)c2=O)CC1 [Example 1-23] | 94 | 70.2 | 122 |
| Cc1nc(N[C@H](C)c2cccc(C(F)F)c2F)c2cc(C3=CCS(=O)(=O)CC3)c(=O)n(C)c2n1 [Example 1-25] | 67.3 | 83.7 | 101 |
| Cc1nc(N[C@H](C)c2cccc(C(F)F)c2F)c2cc(C3=CCN(C4COC4)CC3)c(=O)n(C)c2n1 [Example 1-26] | 26.4 | 260 | 61 |
| Cc1nc(N[C@H](C)c2cccc(C(F)F)c2F)c2cc(C3CCOC3)c(=O)n(C)c2n1 (some centres unmarked) [Example 1-29] | 129 | 309 | 157 |
| C[C@@H](Nc1ncnc2c1cc(C1CCOCC1)c(=O)n2C)c1cccc(C(F)F)c1F [Example 1-30] | 45.8 | 143 | 20.1 |

| Structure (SMILES) | IC50 [1] [nM] | IC50 [2] [nM] | Kd [3] [nM] |
| --- | --- | --- | --- |
| Cc1nc(N[C@H](C)c2cccc(C(F)F)c2F)c2cc(N3CCNCC3=O)c(=O)n(C)c2n1 [Example 2-4] | 89.2 | 906 | 153 |
| Cc1nc(N[C@H](C)c2cccc(C(F)F)c2F)c2cc(N3CCN(C)CC3=O)c(=O)n(C)c2n1 [Example 2-5] | 112 | 824 | 97 |
| C[C@@H](Nc1ncnc2c1cc(C1CN(C)CCO1)c(=O)n2C)c1cccc(C(F)F)c1F (some centres unmarked) [Example 8-1] | 24.6 | 68.4 | 24.2 |
| Cc1nc(N[C@H](C)c2cccc(C(F)F)c2F)c2cc(C3CCN(C)CC3)c(=O)n(C)c2n1 [Example 8-2] | 21.2 | 265 | 64.4 |
| C[C@@H](Nc1ncnc2c1cc(C1CCN(C3COC3)CC1)c(=O)n2C)c1cccc(C(F)F)c1F [Example 8-8] | 30.5 | – | 62 |
| CC(=O)N1CCC(c2cc3c(N[C@H](C)c4cccc(C(F)F)c4F)nc(C)nc3n(C)c2=O)CC1 [Example 8-9] | 53.6 | – | 120 |
| Cc1nc(N[C@H](C)c2cccc(C(F)F)c2F)c2cc(C3CCS(=O)(=O)CC3)c(=O)n(C)c2n1 [Example 8-12] | 65 | – | 83.4 |
| C[C@@H](Nc1ncnc2c1cc(C1CCN(CC(F)F)CC1)c(=O)n2C)c1cccc(C(F)F)c1F [Example 8-13] | 39.8 | – | 156 |
| Cc1nc(N[C@H](C)c2cccc(C(F)F)c2F)c2cc(C3CCN(C4COC4)CC3)c(=O)n(C)c2n1 [Example 8-14] | 81.2 | – | 200 |
| C[C@@H](Nc1ncnc2c1cc(C1CCN(S(C)(=O)=O)CC1)c(=O)n2C)c1cccc(C(F)F)c1F [Example 8-15] | 40.1 | – | 90.4 |
| C[C@@H](Nc1ncnc2c1cc(C1CCN(CC(F)(F)F)CC1)c(=O)n2C)c1cccc(C(F)F)c1F [Example 8-16] | 77.5 | – | 136 |
| Cc1nc(N[C@H](C)c2cccc(C(F)F)c2F)c2cc(C3CCN(CC(F)(F)F)CC3)c(=O)n(C)c2n1 [Example 8-17] | 708 | – | 796 |
| C[C@@H](Nc1ncnc2c1cc(-c1ccc[nH]1)c(=O)n2C)c1cccc(C(F)F)c1F [Example 21-1] | 1070 | – | 1160 |
| C[C@@H](Nc1ncnc2c1cc(-c1cncnc1)c(=O)n2C)c1cccc(C(F)F)c1F [Example 21-2] | 42.9 | – | 85.4 |
| Cc1nc(N[C@H](C)c2cccc(C(F)F)c2F)c2cc(-c3ccnnc3)c(=O)n(C)c2n1 [Example 21-3] | 120 | – | 330 |
| Cc1nc(N[C@H](C)c2cccc(C(F)F)c2F)c2cc(-c3cncnc3)c(=O)n(C)c2n1 [Example 21-4] | 172 | – | 272 |
| C[C@@H](Nc1ncnc2c1cc(-c1cnc(F)nc1)c(=O)n2C)c1cccc(C(F)F)c1F [Example 21-5] | 126 | – | 115 |
| C[C@@H](Nc1ncnc2c1cc(-c1ccccc1C#N)c(=O)n2C)c1cccc(C(F)F)c1F [Example 21-6] | 86.4 | – | 118 |
| COc1ncccc1-c1cc2c(N[C@H](C)c3cccc(C(F)F)c3F)ncnc2n(C)c1=O [Example 21-7] | 47.1 | – | 92.5 |
| C[C@@H](Nc1ncnc2c1cc(-c1ccc3nonc3c1)c(=O)n2C)c1cccc(C(F)F)c1F [Example 21-8] | 235 | – | 336 |
| COc1ncccc1-c1cc2c(N[C@H](C)c3cccc(C(F)F)c3F)nc(C)nc2n(C)c1=O [Example 21-9] | 99 | 335 | 338 |
| COc1ccc(-c2cc3c(N[C@H](C)c4cccc(C(F)F)c4F)ncnc3n(C)c2=O)cc1OC [Example 21-10] | 532 | 611 | 849 |
